Laboratory results from patent US20210317092A1 (BAYER PHARMA AKTIENGESELLSCHAFT, priority 2016, published 2021).

How the values were obtained:
[1] = system: CFA-induced mechanical hyperalgesia; experiment: Rat CFA in vivo model (mechanical hyperalgesia, paw withdrawal threshold); settings: dosed 1 h before CFA and 24 h later, mean ± S.D.
Experimental: Male Sprague Dawley rats were used. Mechanical hyperalgesia was induced by injecting 25 μL of Complete Freund's Adjuvant (CFA) into the plantar surface of one hind paw. Mechanical hyperalgesia was measured using the Pressure Application Measurement apparatus (Ugo Basile, Gemonio, Italy). Briefly, a linearly increasing pressure was applied to an area of ˜ 50 mm2 of the plantar side of the hind paw until a behavioural response (paw withdrawal) was observed or until the pressure reached 1000 gf. The pressure at which the behavioural response occurred was recorded as the “Paw Withdrawal Threshold” (PWT). Both CFA-injected and contralateral PWTs were determined for each rat, in each treatment group and for the vehicle group at each time point of the studies. Each compound example was administered orally in the vehicle solution of dimethylsulfoxide (DMSO), Polyethylenglycol (PEG) and 2-Hydroxypropyl-beta-cyclodextrin (HPCD) (v/v/v=3:20:77). Rats received a first dose as specified in Table 3 in a solution of 5 mL/kg bodyweight application volume 1 hour before CFA injection and a second dose 24 hours later. Mechanical hyperalgesia testing was performed approximately 2 hours before CFA injection, then 2 and 4 hours after the second dose of compound example (i.e. 26 and 28 hours after CFA treatment). Animals in the vehicle group were treated in the identical way like the other groups but without compound in the orally applied solution. Data were expressed as the mean±S.D. Area Under the Curve (AUC) of PWTs (defined in table 3 as “AUC of Paw withdrawal threshold (AUC 0-4 hours) post-vehicle” with respect to vehicle group or “AUC of Paw withdrawal threshold (AUC 0-4 hours) post-drug” with respect to the compound example). Data were analysed by performing a one-way ANOVA followed by a Dunnett's post hoc test. For p values less than 0.05 the results were deemed to be statistically significant.

[2] = system: IL-1B and des-Arg9-bradykinin (DABK) induced paw oedema; experiment: Rat paw oedema in vivo model; settings: p.o., p < 0.05 versus vehicle (6.45 ± 1.14)
Experimental: Rat Paw Oedema In Vivo Model
Male Sprague Dawley rats, approximately 250 g body weight, were used. The compound examples were administered orally in the vehicle as described in “Rat CFA in vivo model”, supra. Rats were treated orally (p.o.) with a solution of 5 mL/kg bodyweight of the vehicle only or 5 mL/kg bodyweight of a solution containing the vehicle plus the compound in a dose as indicated in Table 4. Rats received an intraplantar injection of IL-1B (5 μg in 20 μL) and des-Arg9-bradykinin (DABK; 10 μg in 20 μL) at 20 and 40 minutes after compound treatment, respectively. Paw oedema was measured by water displacement using a plethysmometer (Ugo Basile, Gemonio, Italy). Paw oedema measurement was performed before compound administration (baseline) and subsequently at 20, 40 and 60 minutes after DABK injection. Paw oedema was calculated by subtracting the baseline value to post-DABK treatment values for each individual and at each time point. Data were analysed by calculating the area under the paw oedema time curve for each individual (0-60 minutes post-DABK). The effect of the compound example, relative to that of the vehicle, was analysed by performing a one-way ANOVA followed by a Dunnett's post-hoc test. […] The mean and standard deviation were calculated for each treatment group for graphical representations.

Structure (SMILES): CCOc1ccc(-c2ccc(NC(=O)C3(c4cccc(Cl)c4)CC3)cc2-c2nnn[nH]2)cn1 [Example 253, 1-(3-Chlorophenyl)-N-[4-(6-ethoxypyridin-3-yl)-3-(1H-tetrazol-5-yl)phenyl]cyclopropanecarboxamide]
- AUC of Paw withdrawal threshold (AUC 0-4 hours) post-drug ([1]; 3 mg/kg p.o., p < 0.05 vs vehicle (1083 ± 93 gf)): 1415 ± 274 gf (*)
- AUC of Paw withdrawal threshold (AUC 0-4 hours) post-drug ([1]; 10 mg/kg p.o., p < 0.01 vs vehicle (1083 ± 93 gf)): 1439 ± 310 gf (**)
- AUC of Paw withdrawal threshold (AUC 0-4 hours) post-drug ([1]; 30 mg/kg p.o., p < 0.0001 vs vehicle (1083 ± 93 gf)): 1649 ± 301 gf (***)
- AUC of Paw Oedema (AUC 0-1 hour post DABK) ([2]; 10 mg/kg): 3.24 ± 2.73 (*)
- AUC of Paw Oedema (AUC 0-1 hour post DABK) ([2]; 30 mg/kg): 3.67 ± 2.35 (*)
